From ChEMBL document CHEMBL1201862, “PubChem BioAssay data set” (2004)
The source made the active and inactive calls.

Assays:
H4 = experiment: Luminescence Cell-Based Dose Response HTS to Identify Activators of 5'UTR Stem-Loop Driven Prion Protein mRNA Translation in H4 Neuroglioblastoma Cells. [Related pubchem assays: 1829 (Project Summary), 1814 (Primary HTS)]; format: functional; conditions: Homo sapiens
[1] = Luminescence Cell-Based Dose Response HTS to Identify Activators of Luciferase Translation or Activity in H4 […] Cells. [Related pubchem assays: 1829 (Project Summary), 1814 (Primary HTS)]; format: functional
Cytochrome P450 2C9 = Cytochrome P450 2C9 (Homo sapiens, UniProt P11712)
[2] = Luminescence Cell-Based Dose Confirmation HTS to Identify Activators of 5'UTR Stem-Loop Driven Alpha-Synuclein mRNA Translation in H4 Neuroglioblastoma Cells. [Related pubchem assays: 1829 (Project Summary), 1814 (Primary HTS)]; format: functional
Cytochrome P450 1A2 = target: T1, Cytochrome P450 1A2 (Homo sapiens, UniProt P05177);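 note: PubChem cytochrome P450 panel assay, CYP1A2 panel member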
T1 sequence (P05177 whole entry): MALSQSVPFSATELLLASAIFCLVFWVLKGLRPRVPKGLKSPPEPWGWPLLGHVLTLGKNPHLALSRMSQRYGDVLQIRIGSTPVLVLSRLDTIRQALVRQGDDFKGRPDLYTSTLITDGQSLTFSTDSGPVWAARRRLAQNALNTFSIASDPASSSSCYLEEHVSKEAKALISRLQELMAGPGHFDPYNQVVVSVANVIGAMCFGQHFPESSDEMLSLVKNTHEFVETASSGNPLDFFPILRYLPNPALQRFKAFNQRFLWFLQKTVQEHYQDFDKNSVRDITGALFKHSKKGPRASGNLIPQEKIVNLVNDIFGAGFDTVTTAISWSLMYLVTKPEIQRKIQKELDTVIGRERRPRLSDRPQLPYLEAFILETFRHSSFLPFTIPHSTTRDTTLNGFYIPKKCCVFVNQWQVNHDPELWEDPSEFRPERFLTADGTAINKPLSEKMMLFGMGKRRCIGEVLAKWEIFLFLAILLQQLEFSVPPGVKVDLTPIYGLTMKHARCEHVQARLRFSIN

Cytochrome P450 2D6 = Cytochrome P450 2D6 (Homo sapiens, UniProt P10635);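 note: CYP2D6 member of a cytochrome P450 panel assay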
[3] = blockade of melanocortin 4 receptor signaling – cell-based, plate reader, cherry pick, counter-screen for LGR2 antagonist project, dose response (AID 743444); format: functional;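 note: transfected HEK 293 cells stimulated with alpha-MSH peptide; potency of inhibitors of the alpha-MSH evoked signal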
[4] = blockers of bursicon-stimulated LGR2 cAMP reporter – cell-based, HEK293, CRE-luciferase reporter, cherry pick, set 2, dose response (AID 743343); format: functional;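 note: transfected cells were stimulated with diluted bursicon conditioned medium after compound addition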
Cytochrome P450 2C19 = Cytochrome P450 2C19 (Homo sapiens, UniProt P33261); experiment: Cytochrome panel assay with activity outcomes. Panel member name: p450-cyp2c19 Compounds with AC50 equal or less than 10 uM are considered active; format: functional; conditions: read-out: AC50
cells [5] = format: functional, cell-based
cells [6] = format: functional, cell-based; remark: listed apart in the source
[7] = system: Streptococcus sp. 'group A'; experiment: Streptococcus pyogenes SK(-)GAS viability under kanamycin – luminescence, BacTiterGlo, confirmation, counter-screen for streptokinase expression inhibitor project, dose response (AID 1900); format: functional, organism-based
Streptokinase A = target: T2, Streptokinase A (Streptococcus pyogenes serotype M1, UniProt P10520); experiment: viability-normalized secreted streptokinase activity reduction – plasminogen activation absorbance, OD405, dose response (AID 1914); format: functional, Streptococcus pyogenes M1 GAS;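 note: secreted streptokinase activity via plasminogen activation per viability signal from cell pellet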
T2 sequence (P10520 whole entry): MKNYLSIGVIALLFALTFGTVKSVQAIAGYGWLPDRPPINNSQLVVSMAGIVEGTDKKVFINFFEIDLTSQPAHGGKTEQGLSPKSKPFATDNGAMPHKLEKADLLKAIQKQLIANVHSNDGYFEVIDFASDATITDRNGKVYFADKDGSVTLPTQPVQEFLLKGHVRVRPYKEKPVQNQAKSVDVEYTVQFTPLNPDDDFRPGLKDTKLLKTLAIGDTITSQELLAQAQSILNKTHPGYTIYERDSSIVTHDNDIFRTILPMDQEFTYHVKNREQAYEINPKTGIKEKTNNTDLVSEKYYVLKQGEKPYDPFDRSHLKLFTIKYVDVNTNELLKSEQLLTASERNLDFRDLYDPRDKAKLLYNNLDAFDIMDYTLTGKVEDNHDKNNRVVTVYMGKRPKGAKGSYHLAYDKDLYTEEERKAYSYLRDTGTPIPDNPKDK

Streptococcus = experiment: GAS UMAA2166 growth inhibition – luminescence, BacTiterGlo, counter-screen for streptokinase expression inhibitor project, dose response (AID 1915); format: functional, organism-based;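 note: potency for reduction of bacterial viability or growth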
INS1 = experiment: INS-1E survival protection against cytokine death – cell-based, luminescence, retest, dose response (AID 449756); format: functional; conditions: Rattus norvegicus;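 note: cell death triggered by IL-1 beta plus TNF-alpha plus IFN-gamma mixture; protective hits raise ATP signal compared with cytokine alone wells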
[8] = viability of HCT116 lacking mutant beta-catenin – cell-based, human colon tumor, dose response (AID 1045); format: functional;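 note: HCT116 colon tumor cells with beta catenin knocked out; cells exposed to compound for 60 hours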
[9] = Luminescence Cell-Based Dose Retest to Confirm Inhibitors of Cancer Stem Cells. [Related pubchem assays (depositor defined):AID2717, AID2721]; format: functional; conditions: Homo sapiens
[10] = viability of PTEN-deleted HCT116 cells – cell-based, HCT116 PTEN knockout, dose response (AID 1047); format: functional;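 note: HCT116 colon tumor cells with PTEN knocked out; cells exposed to compound for 60 hours before readout; potency for loss of cell viability measured by luminescence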
[11] = reduction of Shn3 3'UTR-driven luciferase in osteoblasts – cell-based, Clone20 osteoblasts, firefly luciferase, cherry-picked, dose response (AID 624132); format: functional;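 note: firefly luciferase luminescence from reporter carrying the Shn3 3'UTR in osteoblasts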
[12] = non-specific 3'UTR reporter inhibition in Clone20-Shn3RL – cell-based, Renilla luciferase, cherry-picked, counter-screen for Shn3 inhibitor project, dose response (AID 624133); format: functional
[13] = loss of viability in HepG2 cells – cell-based, CellTiter-Glo, cherry-picked, cytotoxicity control for Shn3 inhibitor project, dose response (AID 624134); format: functional
Cytochrome P450 3A4 = Cytochrome P450 3A4 (Homo sapiens, UniProt P08684);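 note: CYP3A4 tested as one member of a cytochrome P450 panel screen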
Sequence of Cytochrome P450 3A4 (P08684 whole entry): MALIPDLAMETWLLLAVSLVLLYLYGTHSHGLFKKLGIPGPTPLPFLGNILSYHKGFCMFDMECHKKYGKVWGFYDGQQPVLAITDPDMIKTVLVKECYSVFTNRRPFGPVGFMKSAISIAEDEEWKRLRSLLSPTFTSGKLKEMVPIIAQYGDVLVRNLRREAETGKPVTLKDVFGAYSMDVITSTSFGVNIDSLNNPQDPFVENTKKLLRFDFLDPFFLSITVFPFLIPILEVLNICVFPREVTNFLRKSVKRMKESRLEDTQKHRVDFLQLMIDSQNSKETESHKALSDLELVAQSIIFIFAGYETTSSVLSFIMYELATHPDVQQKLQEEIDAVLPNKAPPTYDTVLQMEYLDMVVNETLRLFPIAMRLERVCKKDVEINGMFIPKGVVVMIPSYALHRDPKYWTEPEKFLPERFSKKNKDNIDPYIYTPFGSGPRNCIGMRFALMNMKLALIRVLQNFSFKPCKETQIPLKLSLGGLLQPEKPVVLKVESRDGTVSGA

Sequence of Cytochrome P450 2C9 (P11712 whole entry): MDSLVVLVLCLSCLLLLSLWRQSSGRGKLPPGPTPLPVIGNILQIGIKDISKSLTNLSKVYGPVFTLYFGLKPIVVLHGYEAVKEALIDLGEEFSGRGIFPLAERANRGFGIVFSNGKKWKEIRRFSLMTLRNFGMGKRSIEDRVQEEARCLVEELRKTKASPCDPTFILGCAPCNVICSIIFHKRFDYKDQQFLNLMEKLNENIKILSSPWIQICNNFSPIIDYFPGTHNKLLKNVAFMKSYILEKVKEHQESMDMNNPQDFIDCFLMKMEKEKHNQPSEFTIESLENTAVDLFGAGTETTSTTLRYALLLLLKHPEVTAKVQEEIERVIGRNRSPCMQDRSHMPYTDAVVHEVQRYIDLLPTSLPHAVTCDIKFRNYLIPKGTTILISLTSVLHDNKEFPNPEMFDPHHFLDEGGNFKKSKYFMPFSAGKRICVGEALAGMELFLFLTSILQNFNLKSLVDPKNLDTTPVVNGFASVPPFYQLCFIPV
Sequence of Cytochrome P450 2D6 (P10635 whole entry): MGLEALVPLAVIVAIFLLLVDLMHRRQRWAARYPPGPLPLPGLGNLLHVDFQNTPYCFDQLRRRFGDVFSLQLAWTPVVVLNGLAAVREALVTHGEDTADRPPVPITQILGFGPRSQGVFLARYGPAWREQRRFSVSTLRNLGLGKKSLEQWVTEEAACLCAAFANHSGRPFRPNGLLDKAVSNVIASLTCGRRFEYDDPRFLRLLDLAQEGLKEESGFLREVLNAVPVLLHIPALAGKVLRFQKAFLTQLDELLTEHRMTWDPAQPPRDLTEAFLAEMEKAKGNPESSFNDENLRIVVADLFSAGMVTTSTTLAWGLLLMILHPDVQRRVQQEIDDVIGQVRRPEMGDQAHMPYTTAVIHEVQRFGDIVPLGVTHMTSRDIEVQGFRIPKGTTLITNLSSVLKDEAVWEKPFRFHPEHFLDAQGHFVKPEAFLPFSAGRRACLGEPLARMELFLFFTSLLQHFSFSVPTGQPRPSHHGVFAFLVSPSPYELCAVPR
Sequence of Cytochrome P450 2C19 (P33261 whole entry): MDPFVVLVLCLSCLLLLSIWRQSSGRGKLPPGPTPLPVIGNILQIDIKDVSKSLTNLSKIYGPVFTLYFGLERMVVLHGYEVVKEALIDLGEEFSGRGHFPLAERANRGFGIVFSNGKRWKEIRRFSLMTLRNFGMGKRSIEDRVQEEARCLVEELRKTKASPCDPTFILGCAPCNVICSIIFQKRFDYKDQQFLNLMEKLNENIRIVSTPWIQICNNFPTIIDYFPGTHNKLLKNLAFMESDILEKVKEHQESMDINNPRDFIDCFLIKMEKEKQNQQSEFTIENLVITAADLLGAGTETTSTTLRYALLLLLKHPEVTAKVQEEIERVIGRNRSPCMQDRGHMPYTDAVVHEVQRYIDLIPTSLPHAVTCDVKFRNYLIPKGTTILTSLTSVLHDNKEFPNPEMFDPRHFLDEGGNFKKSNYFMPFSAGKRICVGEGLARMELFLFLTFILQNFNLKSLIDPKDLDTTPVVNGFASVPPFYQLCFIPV

## CC(C)OC(=O)CC12CN(C)CC(CC(=O)OC(C)C)(CN(C)C1)C2=O
H4
  EC50: 37 µM (active)
[1]
  EC50: 72.4 µM (active)
Cytochrome P450 2C9
  AC50: inconclusive
[2]
  EC50: 47.6 µM (active)

## COc1ccc(S(=O)(=O)Nc2cccc(Cl)c2)cc1OC
Cytochrome P450 2C9
  AC50: inconclusive
Cytochrome P450 1A2
  AC50: 31.6 µM (inconclusive)

## COc1cc(/C=C/C(=O)Nc2cc(C(F)(F)F)ccc2Cl)cc(OC)c1OC
Cytochrome P450 2D6
  AC50: 0.00562 µM (inconclusive)
Cytochrome P450 2C9
  AC50: inconclusive
Cytochrome P450 1A2
  AC50: 15.8 µM (inconclusive)

## Cc1c(NC(=O)c2ccc(-c3ccccc3)cc2)cccc1C(=O)O
[3]
  AC50: 13.5 µM (active)
[4]
  AC50: 17.1 µM (active)

## NS(=O)(=O)c1ccc(CNC(=O)/C=C/c2c(Cl)cccc2Cl)cc1
Cytochrome P450 2C9
  AC50: inconclusive
Cytochrome P450 2C19
  AC50: 25.1 µM (inconclusive)

## CC(C)(C)NC(=O)CN(Cc1ccc2c(c1)OCO2)C(=O)CNS(=O)(=O)c1ccc(F)cc1
Cells [5]
  EC50: > 350 µM (not active)
Cells [6]
  EC50: > 350 µM (not active)

## O=S(=O)(NCc1nnc2c(C(F)(F)F)cc(Cl)cn12)c1ccccc1
Cells [5]
  EC50: > 350 µM (not active)
[7]
  EC50: > 150 µM (not active)
Streptokinase A
  EC50: > 150 µM (not active)
Cells [6]
  EC50: > 350 µM (not active)
Streptococcus
  EC50: > 150 µM (not active)

## Cc1nn(Cc2c(Cl)cccc2Cl)c(C)c1NC(=O)c1cn(-c2ccccc2)nc1-c1ccccc1
[7]
  EC50: 8.01 µM (active)
INS1
  AC50: 2.46 µM (active)
[8]
  EC50: 4.04 µM (active)
[9]
  AC50: 1.01 µM (active)
Streptokinase A
  EC50: > 150 µM (not active)
[10]
  EC50: 4.36 µM (active)
Streptococcus
  EC50: 21.6 µM (active)
[11]
  AC50: 55 µM (active)
[12]
  AC50: 25.8 µM (active)

## O=C1CCCc2ccccc2N1Cc1ccc(F)cc1
Cells [5]
  EC50: > 350 µM (not active)
Cells [6]
  EC50: > 350 µM (not active)

## COc1cc(CC(=O)Nc2nc(-c3ccc(F)c(F)c3)cs2)cc(OC)c1OC
[13]
  AC50: 6.77 µM (active)
INS1
  AC50: 6.89 µM (active)
[11]
  AC50: 3.92 µM (active)
[12]
  AC50: 19.2 µM (active)

## O=c1c2ccccc2nnn1CSc1nnnn1-c1ccccc1
Cytochrome P450 2D6
  AC50: 17.8 µM (inconclusive)
Cytochrome P450 2C9
  AC50: inconclusive
Cytochrome P450 3A4
  AC50: 12.6 µM (inconclusive)
Cytochrome P450 1A2
  AC50: 25.1 µM (inconclusive)

## O=C(/C=C/c1cc2c(cc1Br)OCO2)NCc1ccc(Cl)cc1
Cytochrome P450 2C9
  AC50: inconclusive
Cytochrome P450 2C19
  AC50: 17.8 µM (inconclusive)

## COc1ccccc1C(=O)Nc1ccccc1SC(=O)c1ccccc1OC
Cells [5]
  EC50: > 350 µM (not active)
Cells [6]
  EC50: > 350 µM (not active)
